# System: B16 cells
# Experiment: Sugar chain extension reaction in B16 cells with saccharide primer (HPTLC, densitometer)
# Assay type: cell-based, mouse
# Conditions: for extended sugar chain product detected by HPTLC: B16 cells 2.0×10^6 cells/plate, 48 hours, medium fraction and cell fraction, resorcinol staining
# Description: When a saccharide primer is administered to the sugar chain-synthesizing cell described above, this cell reacts with the saccharide primer, and as a result, a desired sugar chain can be obtained. Specifically, a saccharide primer is administered at a concentration of 50 μM to a medium in which sugar chain-synthesizing cells (for example, B16 cells) are cultured, and the mixture is incubated at 37° C. for about 2 days. During that period, the saccharide primer is introduced into the cells, a sugar is added to the saccharide primer, and various types of sugar chains are produced in the culture liquid. The sugar chains are recovered from the culture liquid by a method known to a person skilled in the art, for example, a lectin column or a commercially available sugar chain purification kit.
# First, the saccharide primer Lac-C12 and the saccharide primer Lac-C13:1(2) were added to each medium in which B16 cells (mouse melanoma cells strongly expressing GM3) (Japan Health Science Foundation, Health Science Research Resources Bank) were plated at a concentration of 2.0×10^6 cells/plate, and then incubated for 48 hours. Then, the medium and the cells were separated by centrifugation, and each of collected substances was analyzed with HPTLC.
# With regard to the saccharide primer Lac-C12 and the saccharide primer Lac-C13:1(2), their sugar chain extension efficiencies in B16 cells and amounts of the saccharide primers taken into the cells were compared by a quantitative analysis with a densitometer.
structure (smiles),measurement,setting,value
"CCCCCCCCCCCCO[C@@H]1OC(CO)[C@@H](O[C@@H]2OC(CO)[C@H](O)[C@H](O)C2O)[C@H](O)C1O (stereo partly drawn) [Lac-C12, reference compound]",extended sugar chain product detected by HPTLC,,a product X′ was confirmed in both the medium fraction and the cell fraction
"CCCCCCCCCC/C=C/CO[C@@H]1OC(CO)[C@@H](O[C@@H]2OC(CO)[C@H](O)C(O)C2O)C(O)C1O (stereo partly drawn) [Lac-C13:1(2), 1-O-(trans-2-tridecenyl)-4-O-(β-D-galactopyranosyl)-β-D-glucopyranoside]",extended sugar chain product detected by HPTLC,,a product X was confirmed in both the medium fraction and the cell fraction
same,sugar chain extension efficiency (amounts of extended sugar chain products),"B16 cells, medium fraction, 48 hours incubation, densitometer quantitation, compared with Lac-C12, listed as Lac-O-C13:1(2)",equal to or greater than those obtained by using a conventional primer

# From patent US20110111986A1, “NOVEL SACCHARIDE PRIMER AND USE THEREOF” (KEIO UNIVERSITY, priority 2007, published 2011)
